Laboratory results as given in patent publication US20210255193A1, “LYSINE REACTIVE PROBES AND USES THEREOF” (The Scripps Research Institute, priority 2017, published 2021).

Legend:
Assay in all cases: competitive isoTOP-ABPP
Assay type in all cases: binding
[1] = target: T1, RPL10 60S ribosomal protein L10 (Homo sapiens, UniProt P27635); details: 50 uM, in vitro; for isoTOP-ABPP reactivity ratio at lysine P27635_K121: 231 sol; for isoTOP-ABPP ratio (R) at liganded lysine P27635_K121: sol, 231
T1 construct: isoTOP-ABPP experiments performed in cell lysates (in vitro); endogenous in cells; host or cells: soluble proteome of human cancer cell lines (MDA-MB-231; Ramos and Jurkat also prepared)
How it was run: (§1)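 Probe: STP-alkyne, 0.1 mM, 1 h RT, after fragment pretreatment of lysate (esters 50 μM; guanidinylators 100 μM). Tags: light = compound, heavy = DMSO, via CuAAC. Replicates averaged if SD <60% of mean; otherwise lowest ratio used when any R <4.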

[2] = target: T2, GBAS Protein NipSnap homolog 2 (Homo sapiens, UniProt O75323); details: for isoTOP-ABPP reactivity ratio at lysine O75323_K75 / isoTOP-ABPP ratio (R) at liganded lysine O75323_K75: 50 uM, in vitro; for isoTOP-ABPP reactivity ratio at lysine O75323_K75: 231 sol; for isoTOP-ABPP ratio (R) at liganded lysine O75323_K75: sol, 231
T2 construct: isoTOP-ABPP experiments performed in cell lysates (in vitro); endogenous in cells; host or cells: MDA-MB-231 soluble lysate
T2 sequence (O75323 24-286): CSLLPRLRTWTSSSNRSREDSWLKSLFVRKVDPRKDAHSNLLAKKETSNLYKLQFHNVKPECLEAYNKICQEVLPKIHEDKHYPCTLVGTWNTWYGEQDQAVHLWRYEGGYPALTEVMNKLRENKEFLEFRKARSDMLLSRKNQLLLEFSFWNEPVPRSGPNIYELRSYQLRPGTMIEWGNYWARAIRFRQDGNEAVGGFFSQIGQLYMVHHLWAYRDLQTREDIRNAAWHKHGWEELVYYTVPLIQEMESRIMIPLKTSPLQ
How it was run: as §1

[3] = target: T3, MAP2K3 Dual specificity mitogen-activated protein kinase (Homo sapiens, UniProt P46734); details: for isoTOP-ABPP reactivity ratio at lysine P46734_K93 / isoTOP-ABPP ratio (R) at liganded lysine P46734_K93: 50 uM, in vitro; for isoTOP-ABPP reactivity ratio at lysine P46734_K93: 231 sol; for isoTOP-ABPP ratio (R) at liganded lysine P46734_K93: sol, 231
T3 construct: isoTOP-ABPP experiments performed in cell lysates (in vitro); endogenous in cells; host or cells: soluble proteome of human cancer cell lines (MDA-MB-231; Ramos and Jurkat also prepared)
T3 sequence (P46734 1-347): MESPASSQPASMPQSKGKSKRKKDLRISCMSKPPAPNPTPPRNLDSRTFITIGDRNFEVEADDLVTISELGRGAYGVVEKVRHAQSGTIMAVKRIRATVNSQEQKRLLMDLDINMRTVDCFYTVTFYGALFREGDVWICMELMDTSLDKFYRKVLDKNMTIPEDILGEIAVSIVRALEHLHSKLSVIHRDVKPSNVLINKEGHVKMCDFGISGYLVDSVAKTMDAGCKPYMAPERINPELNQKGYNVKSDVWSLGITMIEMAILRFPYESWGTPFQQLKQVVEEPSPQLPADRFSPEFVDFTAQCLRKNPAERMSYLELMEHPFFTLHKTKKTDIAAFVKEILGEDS
How it was run: as §1

[4] = target: T4, ENOPH1 Enolase-phosphatase E1 (Homo sapiens, UniProt Q9UHY7); details: for isoTOP-ABPP reactivity ratio at lysine Q9UHY7_K111 / isoTOP-ABPP ratio (R) at liganded lysine Q9UHY7_K111: 50 uM, in vitro; for isoTOP-ABPP reactivity ratio at lysine Q9UHY7_K111: 231 sol; for isoTOP-ABPP ratio (R) at liganded lysine Q9UHY7_K111: sol, 231
T4 construct: endogenous in cells; host or cells: MDA-MB-231 (soluble fraction of lysate)
How it was run: as §1

[5] = target: T5, FECH Ferrochelatase, mitochondrial (Homo sapiens, UniProt P22830); details: for isoTOP-ABPP reactivity ratio at lysine P22830_K304: 231 sol
T5 construct: isoTOP-ABPP experiments performed in cell lysates (in vitro); endogenous in cells; host or cells: soluble proteome of human cancer cell lines (MDA-MB-231; Ramos and Jurkat also prepared)
T5 sequence (P22830 55-423): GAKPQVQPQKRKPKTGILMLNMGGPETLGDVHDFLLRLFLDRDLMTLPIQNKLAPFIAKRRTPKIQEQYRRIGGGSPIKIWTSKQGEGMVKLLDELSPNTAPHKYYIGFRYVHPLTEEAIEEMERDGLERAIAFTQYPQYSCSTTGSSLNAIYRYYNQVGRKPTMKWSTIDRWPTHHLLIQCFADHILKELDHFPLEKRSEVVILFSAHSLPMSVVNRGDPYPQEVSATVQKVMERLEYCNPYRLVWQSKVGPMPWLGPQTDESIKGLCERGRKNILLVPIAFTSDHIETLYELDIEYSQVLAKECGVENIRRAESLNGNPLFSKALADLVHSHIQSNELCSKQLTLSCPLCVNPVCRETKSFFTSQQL
How it was run: as §1

T4 sequence (Q9UHY7 whole entry): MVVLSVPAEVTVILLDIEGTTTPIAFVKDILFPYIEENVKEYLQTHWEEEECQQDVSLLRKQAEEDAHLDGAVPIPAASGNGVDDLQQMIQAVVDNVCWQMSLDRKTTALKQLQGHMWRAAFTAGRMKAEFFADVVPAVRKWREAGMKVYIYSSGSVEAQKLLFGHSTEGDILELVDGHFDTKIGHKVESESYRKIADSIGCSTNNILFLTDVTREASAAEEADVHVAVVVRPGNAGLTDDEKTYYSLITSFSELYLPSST

SMILES	isoTOP-ABPP reactivity ratio at lysine P46734_K93 [3]	isoTOP-ABPP ratio (R) at liganded lysine P27635_K121 [1]	isoTOP-ABPP ratio (R) at liganded lysine P46734_K93 [3]	isoTOP-ABPP ratio (R) at liganded lysine Q9UHY7_K111 [4]	isoTOP-ABPP ratio (R) at liganded lysine O75323_K75 [2]	other results
O=C(Oc1ccc([N+](=O)[O-])cc1[N+](=O)[O-])C(c1ccccc1)c1ccccc1 [fragment 30, 2,4-Dinitrophenyl 2,2-diphenylacetate]	1.4					isoTOP-ABPP reactivity ratio at lysine P27635_K121 [1]: 1.1; isoTOP-ABPP reactivity ratio at lysine O75323_K75 [2]: 1.1; isoTOP-ABPP reactivity ratio at lysine Q9UHY7_K111 [4]: 0.8
O=C(Oc1ccc([N+](=O)[O-])cc1[N+](=O)[O-])c1cc(C(F)(F)F)cc(C(F)(F)F)c1 [fragment 31, 2,4-Dinitrophenyl 3,5-bis(trifluoromethyl)benzoate]	1.2					isoTOP-ABPP reactivity ratio at lysine O75323_K75 [2]: 0.8; isoTOP-ABPP reactivity ratio at lysine P22830_K304 ([5]; 50 uM, in vitro): 3.2
Cn1cc(CC(=O)Oc2ccc([N+](=O)[O-])cc2[N+](=O)[O-])c2ccccc21 [fragment 32, 2,4-Dinitrophenyl 2-(1-methyl-1H-indol-3-yl)acetate]	1.4					isoTOP-ABPP reactivity ratio at lysine P27635_K121 [1]: 1.7; isoTOP-ABPP reactivity ratio at lysine Q9UHY7_K111 [4]: 1.3
COc1cc(CCC(=O)Oc2ccc([N+](=O)[O-])cc2[N+](=O)[O-])cc(OC)c1OC [fragment 33, 2,4-Dinitrophenyl 3-(3,4,5-trimethoxyphenyl)propanoate]	0.9					isoTOP-ABPP reactivity ratio at lysine O75323_K75 [2]: 3.0; isoTOP-ABPP reactivity ratio at lysine P22830_K304 ([5]; 50 uM, in vitro): 1.7; isoTOP-ABPP reactivity ratio at lysine Q9UHY7_K111 [4]: 0.9
O=C(Oc1ccc([N+](=O)[O-])cc1[N+](=O)[O-])C1CCN(C(=O)OCc2ccccc2)CC1 [fragment 34, 1-Benzyl 4-(2,4-dinitrophenyl) piperidine-1,4-dicarboxylate]		1.3	0.8	0.9		
O=C(Oc1ccc([N+](=O)[O-])cc1[N+](=O)[O-])c1ccc2ccccc2n1 [fragment 35, 2,4-Dinitrophenyl quinoline-2-carboxylate]		0.6	1.0	1.0	1.6	
O=C(Oc1ccc([N+](=O)[O-])cc1[N+](=O)[O-])c1ccc(-c2ccccc2)cc1 [fragment 37, 2,4-Dinitrophenyl [1,1′-biphenyl]-4-carboxylate]		0.8	0.7	0.9	1.6	
O=C(Oc1ccc([N+](=O)[O-])cc1[N+](=O)[O-])c1ccccc1Nc1cccc(C(F)(F)F)c1 [fragment 40, 2,4-Dinitrophenyl 2-((3-(trifluoromethyl)phenyl)amino)benzoate]			1.0	0.7	1.0	
CC(C)(C)OC(=O)NCCCC(=O)Oc1ccc([N+](=O)[O-])cc1[N+](=O)[O-] [fragment 41, 2,4-Dinitrophenyl 4-((tert-butoxycarbonyl)amino)butanoate]		0.8	0.9	1.1	1.8	
O=C(Oc1ccc([N+](=O)[O-])cc1[N+](=O)[O-])C(c1ccccc1)(c1ccccc1)c1ccccc1 [fragment 42, 2,4-Dinitrophenyl 2,2,2-triphenylacetate]			0.9		0.9	isoTOP-ABPP ratio (R) at liganded lysine P22830_K304 ([5]; 50 uM, in vitro, sol, 231): 1.0
NC(=O)c1cc(C(F)(F)F)cc(C(F)(F)F)c1 [fragment 51, reference compound]						isoTOP-ABPP ratio, lysine O75323_K75 ([2]; 50 uM_231_sol_in vitro): 0.9; isoTOP-ABPP ratio, lysine P22830_K304 ([5]; 50 uM_231_sol_in vitro): 0.8; isoTOP-ABPP ratio, lysine P46734_K93 ([3]; 50 uM_231_sol_in vitro): 1.0; isoTOP-ABPP ratio, lysine Q9UHY7_K111 ([4]; 50 uM_231_sol_in vitro): 0.9
